Source: EP2068894B1, “USE OF CIS-RHENIUM (III) DI[…] FOR POTENTIATING THE A[…] OF PLATINIUM COMPLEXES” (SOCIETE DE CO[…] RECHERCHES THERAPEUTIQUES, priority 2006, dated 2007)

Tests used:
Format in all cases: in vivo, Wistar rats
[1] = test system: tumor carcinoma Guerink (T8) cells; experiment: Tumor growth in rats inoculated with tumor carcinoma Guerink (T8) cells; details: for Weight of isolated tumors: day 21 after tumor cells inoculation, cisplatin 8 mg/kg i.p. single on day 9, Re2 7µM/kg i.p. in liposome forms every 2 days from day 3 to day 21; for tumor growth / measured tumor volumes: in comparison to control group, volumes assessed from day 7
Experimental: (§1) Wistar rats weighting 100-120 g were inoculated by tumor carcinoma Guerink (T8) cells (Experimental Oncology, 2003, Vol. 25, pp64-68). The cells were taken in the Institute of Oncology and Experimental Pathology by R.E.Kavetskiy (Kiev). The single intraperitoneal administration of Cisplatin at the dose of 8 mg/kg was made on the 9 day after the tumor inoculation according to the method disclosed by Taylor S.K. in Medical Hypothesis 2003; 60; n°1, pp 89-93. The intraperitoneal administration of the Re2 at the dose of 7µM/kg according to the schema of antioxidant therapy [Meerson F.Z. et al. Pat. Physiol. and Exp. Therap.(Rus) 1983;N5:25-9] in liposome forms [Sktemenko et al. Ukr.Biokhim.Journal (Ukr) 2002;74,N°6:38-43] began on the 3 day after the inoculation of the tumor cells and was repeated every 2 days until day 21. Body weights were measured from day 2 after tumor inoculation, the volume of tumors were assessed from the day 7. On the day 21 animals were sacrified under chlorophormium anesthesia and the tumors were isolated and weighted. Concentrations of hemoglobin (Hb) and quantity of red blood cells (RBC) were measured according to the method described by Chevary et al. in Laboratornoe delo (Rus) 1991;N°10:9-13
(§2) Four groups of 15 animals in each were compared: control group; group with introduction of cisplatin; group with introduction of Re2; and group with introduction of cisplatin together with Re2. Wilcoxon non parametric tests were used to compare the tumor volumes according to the absence of treatment and each group of treatment or between 2 treated groups. Growth of the tumors in control group was very rapid and reached […] and occupied approximately 1/3 of the animal weight. Dynamics of tumor growth is represented on the Figure 1.

[2] = Hemoglobin concentration in blood of tumor-bearing rats; details: for concentration of Hb: blood, day 21 after tumor cells inoculation, cisplatin 8 mg/kg i.p. day 9, Re2 7µM/kg i.p. every 2 days from day 3
Experimental: as §1, §2

[3] = test system: RBC; experiment: Morphological forms of red blood cells in blood of tumor-bearing rats; details: day 21 after tumor cells inoculation; for Damaged RBC / Discocytes / Echinocytes: morphological forms of RBC in blood
Experimental: as §1, §2

| Molecule | Weight of isolated tumors [1] [g] | tumor growth / measured tumor volumes [1] | concentration of Hb [2] [g/L] | hemoglobin, result in words ([2]; in comparison to control group, day 21) | Damaged RBC [3] [%] | Discocytes [3] [%] | Echinocytes [3] [%] | morphological picture of RBC, result in words [3] |
| --- | --- | --- | --- | --- | --- | --- | --- | --- |
| N.N.[Cl][Pt][Cl] [cisplatin] | 9.88 ± 9.90 | significant decrease in measured tumor volumes | 129.49 ± 12.43 | significant increase in hemoglobin | 28.65 ± 3.98 | 46.36 ± 3.18 | 24.99 ± 3.84 | – |
| cis-[Re2(AdCOO)2Cl4].2CH3CN | 38.27 ± 16.77 | did not prevent tumor growth but caused a little delay in progression of growth | 72.02 ± 11.12 | – | 21.53 ± 2.34 | 56.33 ± 4.32 | 22.14 ± 2.16 | supported quantities of discocytes and echinocytes on a rather high level |
